Reference: the kinase profiling compilation of Christmann-Franck et al. (2016)
Each block holds one compound with its values, some of them ahead of it.

Tests used:
Experiment in all cases: KINOMEscan competition binding
Conditions in all cases: compound 10.0 µM; call rule not given here
STK17B (human) = STK17B (human) (UniProt O94768)
LCK (human) = LCK (human) (UniProt P06239)
PAK7 (human) = PAK7 (human) (UniProt Q9P286)
CSNK1G1 (human) = CSNK1G1 (human) (UniProt Q9HCP0)
TNNI3K (human) = TNNI3K (human) (UniProt Q59H18)
CSNK1G2 (human) = CSNK1G2 (human) (UniProt P78368)
ROS1 (human) = ROS1 (human) (UniProt P08922)
STK10 (human) = STK10 (human) (UniProt O94804)
Sequence of STK10 (human) (O94804 whole entry, looked up): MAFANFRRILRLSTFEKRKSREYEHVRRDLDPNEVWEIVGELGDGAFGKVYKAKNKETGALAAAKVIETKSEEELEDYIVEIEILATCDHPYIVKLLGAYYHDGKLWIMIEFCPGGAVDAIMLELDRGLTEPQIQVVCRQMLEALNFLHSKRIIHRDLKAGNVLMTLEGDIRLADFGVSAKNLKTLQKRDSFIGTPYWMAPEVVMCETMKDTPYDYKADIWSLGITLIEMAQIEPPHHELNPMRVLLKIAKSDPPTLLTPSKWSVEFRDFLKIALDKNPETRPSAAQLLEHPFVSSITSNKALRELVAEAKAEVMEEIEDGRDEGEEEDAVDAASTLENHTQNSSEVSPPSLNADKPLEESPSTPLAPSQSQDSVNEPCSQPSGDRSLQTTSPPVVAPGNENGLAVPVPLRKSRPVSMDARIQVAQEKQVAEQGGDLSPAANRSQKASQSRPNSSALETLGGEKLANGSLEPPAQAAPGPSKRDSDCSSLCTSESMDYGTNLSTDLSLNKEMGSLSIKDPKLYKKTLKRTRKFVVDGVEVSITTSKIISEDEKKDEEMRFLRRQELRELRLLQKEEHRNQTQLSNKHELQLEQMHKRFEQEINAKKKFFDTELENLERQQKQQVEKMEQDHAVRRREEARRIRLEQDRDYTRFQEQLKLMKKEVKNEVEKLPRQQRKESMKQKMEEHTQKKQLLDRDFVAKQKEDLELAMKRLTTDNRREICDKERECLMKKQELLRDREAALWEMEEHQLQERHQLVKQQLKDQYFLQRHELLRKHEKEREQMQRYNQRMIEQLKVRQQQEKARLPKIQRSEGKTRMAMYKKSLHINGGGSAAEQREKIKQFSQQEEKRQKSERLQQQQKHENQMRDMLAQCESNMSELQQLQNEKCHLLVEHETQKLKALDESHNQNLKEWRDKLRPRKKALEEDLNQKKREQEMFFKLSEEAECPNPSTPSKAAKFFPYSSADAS

CAMK1D (human) = CAMK1D (human) (UniProt Q8IU85)
PDPK1 (human) = PDPK1 (human) (UniProt O15530)
Sequence of PDPK1 (human) (O15530 whole entry, looked up): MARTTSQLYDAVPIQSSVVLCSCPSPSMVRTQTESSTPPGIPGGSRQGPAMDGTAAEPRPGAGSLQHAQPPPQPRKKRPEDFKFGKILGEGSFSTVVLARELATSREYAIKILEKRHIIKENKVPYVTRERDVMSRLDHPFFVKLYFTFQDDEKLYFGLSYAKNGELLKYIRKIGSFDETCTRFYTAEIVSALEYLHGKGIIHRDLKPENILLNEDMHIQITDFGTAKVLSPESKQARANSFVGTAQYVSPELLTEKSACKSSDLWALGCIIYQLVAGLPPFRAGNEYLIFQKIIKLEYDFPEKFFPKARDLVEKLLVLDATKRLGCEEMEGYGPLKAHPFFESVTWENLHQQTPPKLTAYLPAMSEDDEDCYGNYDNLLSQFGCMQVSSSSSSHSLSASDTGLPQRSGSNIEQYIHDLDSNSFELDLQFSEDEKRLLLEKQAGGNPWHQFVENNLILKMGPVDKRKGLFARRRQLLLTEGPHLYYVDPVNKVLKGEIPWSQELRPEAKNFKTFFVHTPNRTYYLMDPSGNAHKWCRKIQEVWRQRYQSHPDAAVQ

AKT3 (human) = AKT3 (human) (UniProt Q9Y243)
FLT1 (human) = FLT1 (human) (UniProt P17948)
Sequence of FLT1 (human) (P17948 whole entry, looked up): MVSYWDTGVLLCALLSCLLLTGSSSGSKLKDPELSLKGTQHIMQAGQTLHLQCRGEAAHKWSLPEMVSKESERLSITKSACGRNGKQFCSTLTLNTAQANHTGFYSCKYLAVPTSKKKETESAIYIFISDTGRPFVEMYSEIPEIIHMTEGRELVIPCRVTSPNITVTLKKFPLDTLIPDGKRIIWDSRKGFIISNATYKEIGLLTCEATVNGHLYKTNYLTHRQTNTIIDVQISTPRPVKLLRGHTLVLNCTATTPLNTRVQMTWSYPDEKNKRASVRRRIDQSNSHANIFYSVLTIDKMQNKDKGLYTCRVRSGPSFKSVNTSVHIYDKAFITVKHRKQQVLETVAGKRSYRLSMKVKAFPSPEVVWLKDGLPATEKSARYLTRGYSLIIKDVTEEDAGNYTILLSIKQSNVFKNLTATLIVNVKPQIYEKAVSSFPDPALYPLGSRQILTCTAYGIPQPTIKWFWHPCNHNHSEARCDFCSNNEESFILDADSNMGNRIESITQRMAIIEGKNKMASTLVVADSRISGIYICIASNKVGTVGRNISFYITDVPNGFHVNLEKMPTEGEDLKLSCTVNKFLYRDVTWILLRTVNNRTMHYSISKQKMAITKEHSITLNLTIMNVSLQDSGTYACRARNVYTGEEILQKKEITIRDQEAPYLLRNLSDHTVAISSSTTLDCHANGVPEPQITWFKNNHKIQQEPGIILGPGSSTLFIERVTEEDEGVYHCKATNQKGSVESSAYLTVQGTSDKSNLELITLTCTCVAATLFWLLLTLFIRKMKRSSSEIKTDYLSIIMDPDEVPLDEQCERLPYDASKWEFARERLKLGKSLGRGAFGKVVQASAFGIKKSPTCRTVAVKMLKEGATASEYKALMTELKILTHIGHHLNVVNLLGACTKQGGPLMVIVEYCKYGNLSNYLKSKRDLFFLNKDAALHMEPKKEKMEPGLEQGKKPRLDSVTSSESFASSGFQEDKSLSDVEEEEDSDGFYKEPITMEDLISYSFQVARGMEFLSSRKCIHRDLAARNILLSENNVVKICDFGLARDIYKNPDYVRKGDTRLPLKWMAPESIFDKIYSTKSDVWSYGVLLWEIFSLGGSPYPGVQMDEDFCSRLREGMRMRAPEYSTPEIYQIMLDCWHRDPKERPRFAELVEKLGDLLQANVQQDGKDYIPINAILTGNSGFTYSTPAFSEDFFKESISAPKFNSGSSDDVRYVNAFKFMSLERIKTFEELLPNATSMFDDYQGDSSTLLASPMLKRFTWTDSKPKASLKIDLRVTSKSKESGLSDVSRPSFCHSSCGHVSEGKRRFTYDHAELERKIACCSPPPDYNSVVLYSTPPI

STK33 (human) = STK33 (human) (UniProt Q9BYT3)
CDK16 (human) = CDK16 (human) (UniProt Q00536)
AAK1 (human) = AAK1 (human) (UniProt Q2M2I8)
BRAF (human) = BRAF (human) (UniProt P15056)
MAP4K5 (human) = MAP4K5 (human) (UniProt Q9Y4K4)
STK38L (human) = STK38L (human) (UniProt Q9Y2H1)
Sequence of STK38L (human) (Q9Y2H1 whole entry, looked up): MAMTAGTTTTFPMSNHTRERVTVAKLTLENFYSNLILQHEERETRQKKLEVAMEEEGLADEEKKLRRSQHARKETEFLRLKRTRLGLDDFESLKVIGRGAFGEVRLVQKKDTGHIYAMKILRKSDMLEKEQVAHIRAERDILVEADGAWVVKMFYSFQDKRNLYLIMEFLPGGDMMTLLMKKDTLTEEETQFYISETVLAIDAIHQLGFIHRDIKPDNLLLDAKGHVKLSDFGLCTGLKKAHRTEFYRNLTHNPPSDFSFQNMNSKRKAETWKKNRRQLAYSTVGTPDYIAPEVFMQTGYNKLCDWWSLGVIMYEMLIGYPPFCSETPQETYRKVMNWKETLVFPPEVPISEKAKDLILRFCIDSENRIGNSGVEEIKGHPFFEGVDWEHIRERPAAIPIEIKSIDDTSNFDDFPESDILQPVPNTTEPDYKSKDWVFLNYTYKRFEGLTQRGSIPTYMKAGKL

BMPR1A (human) = BMPR1A (human) (UniProt P36894)
NEK9 (human) = NEK9 (human) (UniProt Q8TD19)
MKNK2 (human) = MKNK2 (human) (UniProt Q9HBH9)
PDGFRA (human) = PDGFRA (human) (UniProt P16234)
[1] = target: JAK1 JH2 pseudokinase (human) (UniProt P23458)
EPHA6 (human) = EPHA6 (human) (UniProt Q9UF33)
EPHA7 (human) = EPHA7 (human) (UniProt Q15375)
CAMK2G (human) = CAMK2G (human) (UniProt Q13555)
Sequence of CAMK2G (human) (Q13555 whole entry, looked up): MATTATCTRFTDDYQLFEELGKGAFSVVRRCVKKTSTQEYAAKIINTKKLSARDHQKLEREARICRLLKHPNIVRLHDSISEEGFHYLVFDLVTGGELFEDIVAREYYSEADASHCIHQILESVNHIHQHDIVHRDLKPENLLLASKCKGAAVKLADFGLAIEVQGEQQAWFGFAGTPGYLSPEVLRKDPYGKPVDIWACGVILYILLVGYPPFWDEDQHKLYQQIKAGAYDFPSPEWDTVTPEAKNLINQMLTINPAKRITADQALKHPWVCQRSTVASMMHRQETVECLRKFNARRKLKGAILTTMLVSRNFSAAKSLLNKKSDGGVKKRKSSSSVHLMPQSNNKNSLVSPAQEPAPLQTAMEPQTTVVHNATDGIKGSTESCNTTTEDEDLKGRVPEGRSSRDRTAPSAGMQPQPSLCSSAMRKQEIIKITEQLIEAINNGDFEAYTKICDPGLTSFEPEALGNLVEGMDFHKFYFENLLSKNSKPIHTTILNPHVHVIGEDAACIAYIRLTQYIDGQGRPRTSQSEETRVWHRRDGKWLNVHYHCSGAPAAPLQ

AURKB (human) = AURKB (human) (UniProt Q96GD4)
NEK6 (human) = NEK6 (human) (UniProt Q9HC98)
SYK (human) = SYK (human) (UniProt P43405)
CAMKK1 (human) = CAMKK1 (human) (UniProt Q8N5S9)
CSNK1E (human) = CSNK1E (human) (UniProt P49674)
EPHA5 (human) = EPHA5 (human) (UniProt P54756)
SLK (human) = SLK (human) (UniProt Q9H2G2)
BRSK2 (human) = BRSK2 (human) (UniProt Q8IWQ3)
CLK1 (human) = CLK1 (human) (UniProt P49759)
PLK4 (human) = PLK4 (human) (UniProt O00444)
FER (human) = FER (human) (UniProt P16591)
PTK6 (human) = PTK6 (human) (UniProt Q13882)
Sequence of PTK6 (human) (Q13882 whole entry, looked up): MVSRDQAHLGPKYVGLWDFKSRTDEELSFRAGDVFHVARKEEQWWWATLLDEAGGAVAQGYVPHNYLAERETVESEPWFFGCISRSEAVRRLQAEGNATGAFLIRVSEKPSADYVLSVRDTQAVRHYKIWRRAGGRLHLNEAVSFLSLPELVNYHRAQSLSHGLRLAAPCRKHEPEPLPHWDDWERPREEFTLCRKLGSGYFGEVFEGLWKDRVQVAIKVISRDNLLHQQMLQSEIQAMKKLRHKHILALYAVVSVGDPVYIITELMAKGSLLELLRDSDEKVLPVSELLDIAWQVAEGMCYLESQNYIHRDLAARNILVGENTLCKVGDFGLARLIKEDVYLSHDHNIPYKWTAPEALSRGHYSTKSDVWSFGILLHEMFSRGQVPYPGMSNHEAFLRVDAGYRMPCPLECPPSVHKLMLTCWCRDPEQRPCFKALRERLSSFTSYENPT

RAF1 (human) = RAF1 (human) (UniProt P04049)
CDK2 (human) = CDK2 (human) (UniProt P24941)
ABL2 (human) = ABL2 (human) (UniProt P42684)

Sequence of LCK (human) (P06239 whole entry, looked up): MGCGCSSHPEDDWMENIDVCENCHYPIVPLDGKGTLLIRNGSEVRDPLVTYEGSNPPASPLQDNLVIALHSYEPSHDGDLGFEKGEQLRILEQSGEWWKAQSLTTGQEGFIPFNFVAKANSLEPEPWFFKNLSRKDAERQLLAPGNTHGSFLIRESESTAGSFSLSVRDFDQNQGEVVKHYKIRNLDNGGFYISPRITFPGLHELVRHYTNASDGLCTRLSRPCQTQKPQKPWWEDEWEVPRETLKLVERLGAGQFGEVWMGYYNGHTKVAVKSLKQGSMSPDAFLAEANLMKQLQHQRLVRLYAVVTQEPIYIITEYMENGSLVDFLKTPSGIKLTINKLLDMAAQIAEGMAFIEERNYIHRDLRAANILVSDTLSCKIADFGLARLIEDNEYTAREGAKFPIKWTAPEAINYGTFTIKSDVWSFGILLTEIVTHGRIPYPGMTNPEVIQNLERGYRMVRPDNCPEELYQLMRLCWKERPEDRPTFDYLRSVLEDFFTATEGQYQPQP

kinase still bound, per cent of control (STK17B (human)): no effect (inactive)
kinase still bound, per cent of control (LCK (human)): no effect (inactive)
kinase still bound, per cent of control (PAK7 (human)): no effect (inactive)
kinase still bound, per cent of control (CSNK1G1 (human)): no effect (inactive)
kinase still bound, per cent of control (TNNI3K (human)): no effect (inactive)
kinase still bound, per cent of control (CSNK1G2 (human)): no effect (inactive)
kinase still bound, per cent of control (ROS1 (human)): no effect (inactive)
kinase still bound, per cent of control (STK10 (human)): no effect (inactive)
kinase still bound, per cent of control (CAMK1D (human)): no effect (inactive)
kinase still bound, per cent of control (PDPK1 (human)): no effect (inactive)
kinase still bound, per cent of control (AKT3 (human)): no effect (inactive)
kinase still bound, per cent of control (FLT1 (human)): no effect (inactive)
kinase still bound, per cent of control (STK33 (human)): no effect (inactive)
kinase still bound, per cent of control (CDK16 (human)): no effect (inactive)
kinase still bound, per cent of control (AAK1 (human)): no effect (inactive)
kinase still bound, per cent of control (BRAF (human)): no effect (inactive)
kinase still bound, per cent of control (MAP4K5 (human)): no effect (inactive)
kinase still bound, per cent of control (STK38L (human)): no effect (inactive)
kinase still bound, per cent of control (BMPR1A (human)): no effect (inactive)
kinase still bound, per cent of control (MKNK2 (human)): no effect (inactive)
kinase still bound, per cent of control (PDGFRA (human)): no effect (inactive)
kinase still bound, per cent of control [1]: no effect (inactive)
kinase still bound, per cent of control (EPHA6 (human)): no effect (inactive)
kinase still bound, per cent of control (EPHA7 (human)): no effect (inactive)
kinase still bound, per cent of control (CAMK2G (human)): no effect (inactive)
kinase still bound, per cent of control (AURKB (human)): no effect (inactive)
kinase still bound, per cent of control (NEK6 (human)): no effect (inactive)
kinase still bound, per cent of control (SYK (human)): no effect (inactive)
kinase still bound, per cent of control (CAMKK1 (human)): no effect (inactive)
kinase still bound, per cent of control (CSNK1E (human)): 0%
kinase still bound, per cent of control (EPHA5 (human)): no effect (inactive)
kinase still bound, per cent of control (SLK (human)): no effect (inactive)
kinase still bound, per cent of control (BRSK2 (human)): no effect (inactive)
kinase still bound, per cent of control (CLK1 (human)): no effect (inactive)
kinase still bound, per cent of control (PLK4 (human)): no effect (inactive)
kinase still bound, per cent of control (FER (human)): no effect (inactive)
kinase still bound, per cent of control (PTK6 (human)): no effect (inactive)
kinase still bound, per cent of control (RAF1 (human)): no effect (inactive)
kinase still bound, per cent of control (CDK2 (human)): no effect (inactive)
SMILES: c1ccc(-c2n[nH]cc2-c2ccnc3ccccc23)nc1
kinase still bound, per cent of control (NEK9 (human)): no effect (inactive)

kinase still bound, per cent of control (LCK (human)): no effect (inactive)
kinase still bound, per cent of control (PAK7 (human)): no effect (inactive)
kinase still bound, per cent of control (CSNK1G1 (human)): 0%
kinase still bound, per cent of control (TNNI3K (human)): no effect (inactive)
kinase still bound, per cent of control (ROS1 (human)): no effect (inactive)
kinase still bound, per cent of control (STK10 (human)): no effect (inactive)
kinase still bound, per cent of control (CAMK1D (human)): no effect (inactive)
kinase still bound, per cent of control (PDPK1 (human)): no effect (inactive)
kinase still bound, per cent of control (AKT3 (human)): no effect (inactive)
kinase still bound, per cent of control (FLT1 (human)): no effect (inactive)
kinase still bound, per cent of control (STK33 (human)): no effect (inactive)
kinase still bound, per cent of control (BRAF (human)): no effect (inactive)
kinase still bound, per cent of control (MAP4K5 (human)): no effect (inactive)
kinase still bound, per cent of control (STK38L (human)): no effect (inactive)
kinase still bound, per cent of control (BMPR1A (human)): no effect (inactive)
kinase still bound, per cent of control (PDGFRA (human)): no effect (inactive)
kinase still bound, per cent of control [1]: no effect (inactive)
kinase still bound, per cent of control (EPHA6 (human)): no effect (inactive)
kinase still bound, per cent of control (EPHA7 (human)): no effect (inactive)
kinase still bound, per cent of control (CAMK2G (human)): no effect (inactive)
kinase still bound, per cent of control (AURKB (human)): no effect (inactive)
kinase still bound, per cent of control (ABL2 (human)): no effect (inactive)
kinase still bound, per cent of control (NEK6 (human)): no effect (inactive)
kinase still bound, per cent of control (SYK (human)): no effect (inactive)
kinase still bound, per cent of control (CAMKK1 (human)): no effect (inactive)
kinase still bound, per cent of control (CSNK1E (human)): 0%
kinase still bound, per cent of control (EPHA5 (human)): no effect (inactive)
kinase still bound, per cent of control (SLK (human)): no effect (inactive)
kinase still bound, per cent of control (BRSK2 (human)): no effect (inactive)
kinase still bound, per cent of control (PLK4 (human)): no effect (inactive)
kinase still bound, per cent of control (FER (human)): no effect (inactive)
kinase still bound, per cent of control (PTK6 (human)): no effect (inactive)
kinase still bound, per cent of control (RAF1 (human)): no effect (inactive)
SMILES: CC(=O)c1c(-c2ccncc2)[nH]c(-c2ccncc2)c1C
kinase still bound, per cent of control (NEK9 (human)): no effect (inactive)

kinase still bound, per cent of control (STK17B (human)): 0.1%
kinase still bound, per cent of control (LCK (human)): 0%
kinase still bound, per cent of control (PAK7 (human)): 0%
kinase still bound, per cent of control (CSNK1G1 (human)): no effect (inactive)
kinase still bound, per cent of control (TNNI3K (human)): 7.6%
kinase still bound, per cent of control (CSNK1G2 (human)): no effect (inactive)
kinase still bound, per cent of control (ROS1 (human)): 0%
kinase still bound, per cent of control (STK10 (human)): 0%
kinase still bound, per cent of control (CAMK1D (human)): 0.7%
kinase still bound, per cent of control (PDPK1 (human)): 5.8%
kinase still bound, per cent of control (AKT3 (human)): no effect (inactive)
kinase still bound, per cent of control (FLT1 (human)): 0.1%
kinase still bound, per cent of control (STK33 (human)): 0%
kinase still bound, per cent of control (CDK16 (human)): 0%
kinase still bound, per cent of control (AAK1 (human)): 0.1%
kinase still bound, per cent of control (BRAF (human)): no effect (inactive)
kinase still bound, per cent of control (MAP4K5 (human)): 0%
kinase still bound, per cent of control (STK38L (human)): 0%
kinase still bound, per cent of control (BMPR1A (human)): 4.35%
kinase still bound, per cent of control (MKNK2 (human)): 2.1%
kinase still bound, per cent of control (PDGFRA (human)): 0.8%
kinase still bound, per cent of control [1]: 1.8%
kinase still bound, per cent of control (EPHA6 (human)): 0%
kinase still bound, per cent of control (EPHA7 (human)): 0%
kinase still bound, per cent of control (CAMK2G (human)): 0.2%
kinase still bound, per cent of control (AURKB (human)): 0%
kinase still bound, per cent of control (ABL2 (human)): 4.8%
kinase still bound, per cent of control (NEK6 (human)): no effect (inactive)
kinase still bound, per cent of control (SYK (human)): 1.3%
kinase still bound, per cent of control (CAMKK1 (human)): 0.1%
kinase still bound, per cent of control (CSNK1E (human)): 2.4%
kinase still bound, per cent of control (EPHA5 (human)): 0%
kinase still bound, per cent of control (SLK (human)): 0%
kinase still bound, per cent of control (BRSK2 (human)): 0%
kinase still bound, per cent of control (CLK1 (human)): 0%
kinase still bound, per cent of control (PLK4 (human)): 0%
kinase still bound, per cent of control (FER (human)): 0%
kinase still bound, per cent of control (PTK6 (human)): 1.8%
kinase still bound, per cent of control (RAF1 (human)): no effect (inactive)
kinase still bound, per cent of control (CDK2 (human)): 28.3%
SMILES: CCS(=O)(=O)Nc1ccc2c(c1)[C@H](/C(=N/c1ccc(CN3CCCCC3)cc1)c1ccccc1)C(=O)N2
kinase still bound, per cent of control (NEK9 (human)): no effect (inactive)
